Read-outs that look alike come from different tables or passages of the source.
Tested on: SD masculine rats with hypohepatia
Type: in vivo
Details: hepatoxic drug alone after carbon tetrachloride
Description: Carbon tetrachloride was administered orally as a hepatoxic substance to SD masculine rats (weighing 500 g ± 50 g; age, 10 months) with hypohepatia (3 groups containing 8-9 rats each) at a dose of 0.5 g/kg, whereby their serum GOT was increased to more than 50 Karmen units after 24 hours. At the same time, 2 mg/kg of indomethacin as a hepatoxic drug (a lenitive), 5 mg/kg of 5-FU as a hepatoxic carcinostatic and 10 mg/kg of tetracycline as a hepatoxic antibiotic were administered orally to each of the animals five times every fourth day.
An additional 20 mg/kg of the composition of Preparation Ex. 1 was administered orally to the medicated group.
Seven days after the completion of medication, the animals were slaughtered to remove the livers, which were then visually observed. Afterwards, the tissue slices were observed under an optical microscope to examine the degree of heteroplasia of the liver cells.
The GOT eluates due to cytoclasis were determined by gathering blood from the tail vein of each animal 24 hours after the administration of carbon tetrachloride, two and ten days after the initiation of medication and on the final date of experimentation.

Row | SMILES | mortality | serum GOT (2 days after the initiation of medication) | serum GOT (10 days) | serum GOT (Final Date)
1 | O=c1[nH]cc(F)c(=O)[nH]1 [5-FU, 5-fluorouracil] | some animals died |  |  | 
2 | COc1ccc2c(c1)c(CC(=O)O)c(C)n2C(=O)c1ccc(Cl)cc1 [Indomethacin] | some animals died | 81.3±4.21 Karmen units/ml | 91.8±8.35 Karmen units/ml | 99.4±1.43 Karmen units/ml

— EP0435693B1, “Pharmaceutical compositions containing 3-oxygermylpropionic acid polymers for inhibiting the degeneration of cells” (SANWA KAGAKU KENKYUSHO CO., LTD., priority 1989, dated 1991)
